Assay results from PubChem BioAssay AID1963434 (Molecular Pharmacology Branch, DTP, NCI, 2024).

System: 755483-174-R-J1-PDC complex spheroid growth, percent test/control
Test: Anticancer human tumor 755483-174-R-J1-PDC patient-derived rhabdomyosarcoma cell line growth inhibition [Asc]
Conditions: for IC50: curve of first compound; for viability, T/C: stronger effect = lower value
Experimental: Multicellular complex tumor spheroid response to apoptosis pathway targeting inhibitors Alrizomadlin, Pelcitoclax, and Dasminapant in combination with a variety of drugs and investigational agents in selected tumor cell lines
The MDM2 inhibitor alrizomadlin, the Bcl-2/Bcl-xL inhibitor pelcitoclax, and the IAPs inhibitor dasminapant were evaluated both individually and in combination with standard of care and investigational anticancer small molecules within a complex spheroid model of solid tumors. . Complex spheroids include a stromal component modeled by human endothelial cells (HUVEC) and fibroblasts modeled by human mesenchymal stem cells (MSCs). The concentration ranges selected for each drug and investigational agent were based upon clinically achievable concentrations if the clinical Cmax of the agent was known.
Compounds. The drugs and investigational agents: alrizomadlin (APG-115; NSC831270), pelcitoclax (APG-1252; NSC835773), dasminapant (APG-1387;NSC834197), TAK-243 (NSC785004), copanlisib (NSC809693), olaparib (NSC753686), talazoparib (NSC767125), cobimetinib (NSC 768068), eltanexor (KPT-8602, NSC 794443), abemaciclib (NSC 768073), sotorasib (NSC818433), adagrasib (NSC 831453), MRTX-1133 (NSC 836407), Iadademestat (ORY1001, NSC 806812), and RMC-4630 (NSC839698), were obtained from the NCI Developmental Therapeutics Program Chemical Repository. The FDA-approved anticancer drug set is available from the Developmental Therapeutics Program at https://dtp.cancer.gov/organization/dscb/obtaining/available plates.htm. […] The stock solutions were prepared in dimethyl sulfoxide (DMSO, Sigma-Aldrich, St. Louis, MO, cat. D2650) at 800-fold the tested concentration and stored at -70 degrees C prior to their use. All drugs and investigational agents were tested over a range starting from a high concentration at or near the clinical Cmax and decreasing in half-log increments. If the clinical Cmax for an agent had not been determined, the highest concentration tested was 10 microM.
The patient-derived cancer (PDC) cell lines include five colon adenocarcinomas: 186277-243-T-J2-PDC, 616215-338-R-J1-PDC, 439559-082-T-J2-PDC, 463943-066-T-J2-PDC, and 519858-162-T-J1-PDC; three pancreatic carcinomas: 323965-272-R-J2-PDC, 521955-158-R6-J3-PDC, and 521955-158-R2-J5-PDC; two uterine sarcomas: 327498-152-R-J2-PDC and 993429-296-R-J1-PDC; two rhabdomyosarcomas: 755483-174-R-J1-PDC and 772245-204-R-J1-PDC; two soft tissue sarcomas: 126254-015-R-J1-PDC and 494315-158-R-J1-PDC; two malignant fibrous histiocytomas: 317291-083-R-J1-PDC and 596521-263-R-J1-PDC; two breast carcinomas: 171881-019-R-J1-PDC and 885512-296-R-J2-PDC; and one ovarian carcinoma: 6556581-035-R-J-PDC were obtained from the NCI PDMR, (https://pdmr.cancer.gov). The established cell lines HSSY-2 synovial sarcoma (RRID:CVCL 8719), SYO-1 synovial sarcoma (RRID:CVCL_7146), MPNST malignant peripheral neural sheath tumor were obtained from the Sloan Kettering Institute. The following established cell lines were purchased from the American Type Culture Collection (ATCC, Manassas, VA), Sor the received from the NCI repository:, PANC-1 pancreatic carcinoma (CRL-1469, RRID:CVCL_0480), OVCAR-5 ovarian carcinoma (RRID:CVCL_1628), OVCAR-8 ovarian carcinoma (RRID:CVCL_1629), , MCF-7 breast carcinoma (CRL-12584, RRID:CVCL_0031), MDA-MB-231 breast carcinoma (CRL-12532, RRID:CVCL_0062), NCI-H1876 small cell lung carcinoma (CRL-5902, RRID:CVCL_1503), NCI-H510A small cell lung carcinoma (HTB-184, RRID:CVCL_1565), NCI-H1417 (CRL-5869, RRID:CVCL_1469), and NCI-H196 small cell lung carcinoma (CRL-5823, RRID:CVCL_1509). Dr. Peter Houghton (Greehey Children's Cancer Research Institute, University of Texas Health Science Center, San Antonio, TX) provided Rh-18 rhabdomyosarcoma (RRID:CVCL_1659). Pooled donor human umbilical vein endothelial cells (HUVEC, Lonza, cat. CC-2519) and human mesenchymal stem cells (hMSC, Lonza, cat. PT-2501) were purchased from Lonza (Walkersville, MD).
Cell Culture. […]

[1] = second compound 0.03 µM, first compound 0.0316 µM
[2] = second compound 0.03 µM, first compound 0.1 µM
[3] = second compound 0.0949 µM, first compound 0.0316 µM
[4] = second compound 0.0949 µM, first compound 0.1 µM
[5] = second compound 0.3 µM, first compound 0.0316 µM
[6] = second compound 0.3 µM, first compound 0.1 µM
[7] = second compound 0.949 µM, first compound 0.0316 µM
[8] = second compound 0.949 µM, first compound 0.1 µM
[9] = second compound 3 µM, first compound 0.0316 µM
[10] = second compound 3 µM, first compound 0.1 µM
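Also: spheroids exposed to compounds for seven days before readout.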

## Cn1ncnc1[C@H]1c2n[nH]c(=O)c3cc(F)cc(c23)N[C@@H]1c1ccc(F)cc1 + CCN1C(C(=O)NC23CCC(C(=O)O)(CC2)CC3)C(c2cccc(Cl)c2F)C2(C(=O)Nc3cc(Cl)ccc32)C12CCCCC2
Second compound 0.03 µM
  IC50: 10.9 nM
Second compound 0.0949 µM
  IC50: 12.4 nM
Second compound 0.3 µM
  IC50: 5.94 nM
Second compound 0.949 µM
  IC50: 7.98 nM
Second compound 3 µM
  IC50: 1.56 nM
Second compound 0.03 µM, first compound 0.000316 µM
  viability, T/C: 64.6%
Second compound 0.03 µM, first compound 0.001 µM
  viability, T/C: 64.9%
Second compound 0.03 µM, first compound 0.00316 µM
  viability, T/C: 55.6%
Second compound 0.03 µM, first compound 0.01 µM
  viability, T/C: 48.1%
[1]
  viability, T/C: 45.9%
[2]
  viability, T/C: 35.1%
Second compound 0.0949 µM, first compound 0.000316 µM
  viability, T/C: 70.1%
Second compound 0.0949 µM, first compound 0.001 µM
  viability, T/C: 71.2%
Second compound 0.0949 µM, first compound 0.00316 µM
  viability, T/C: 62.7%
Second compound 0.0949 µM, first compound 0.01 µM
  viability, T/C: 54.1%
[3]
  viability, T/C: 31.1%
[4]
  viability, T/C: 35.5%
Second compound 0.3 µM, first compound 0.000316 µM
  viability, T/C: 64.9%
Second compound 0.3 µM, first compound 0.001 µM
  viability, T/C: 55%
Second compound 0.3 µM, first compound 0.00316 µM
  viability, T/C: 58.6%
Second compound 0.3 µM, first compound 0.01 µM
  viability, T/C: 42.7%
[5]
  viability, T/C: 30.4%
[6]
  viability, T/C: 32.6%
Second compound 0.949 µM, first compound 0.000316 µM
  viability, T/C: 66.6%
Second compound 0.949 µM, first compound 0.001 µM
  viability, T/C: 66.2%
Second compound 0.949 µM, first compound 0.00316 µM
  viability, T/C: 74%
Second compound 0.949 µM, first compound 0.01 µM
  viability, T/C: 45.4%
[7]
  viability, T/C: 43.1%
[8]
  viability, T/C: 33.8%
Second compound 3 µM, first compound 0.000316 µM
  viability, T/C: 59.6%
Second compound 3 µM, first compound 0.001 µM
  viability, T/C: 51.8%
Second compound 3 µM, first compound 0.00316 µM
  viability, T/C: 45.5%
Second compound 3 µM, first compound 0.01 µM
  viability, T/C: 45.5%
[9]
  viability, T/C: 41.6%
[10]
  viability, T/C: 39.3%

## O=C(c1cc(Cc2n[nH]c(=O)c3ccccc23)ccc1F)N1CCN(C(=O)C2CC2)CC1 + CCN1C(C(=O)NC23CCC(C(=O)O)(CC2)CC3)C(c2cccc(Cl)c2F)C2(C(=O)Nc3cc(Cl)ccc32)C12CCCCC2
Second compound 0.03 µM
  IC50: 1700 nM
Second compound 0.0949 µM
  IC50: 2560 nM
Second compound 0.3 µM
  IC50: 1610 nM
Second compound 0.949 µM
  IC50: 1570 nM
Second compound 3 µM
  IC50: 1110 nM
[1]
  viability, T/C: 58.3%
[2]
  viability, T/C: 60.6%
Second compound 0.03 µM, first compound 0.316 µM
  viability, T/C: 68.3%
Second compound 0.03 µM, first compound 1 µM
  viability, T/C: 48.4%
Second compound 0.03 µM, first compound 3.16 µM
  viability, T/C: 46%
Second compound 0.03 µM, first compound 10 µM
  viability, T/C: 23.4%
[3]
  viability, T/C: 79.4%
[4]
  viability, T/C: 77%
Second compound 0.0949 µM, first compound 0.316 µM
  viability, T/C: 72%
Second compound 0.0949 µM, first compound 1 µM
  viability, T/C: 64.3%
Second compound 0.0949 µM, first compound 3.16 µM
  viability, T/C: 46.5%
Second compound 0.0949 µM, first compound 10 µM
  viability, T/C: 26.1%
[5]
  viability, T/C: 80.3%
[6]
  viability, T/C: 63%
Second compound 0.3 µM, first compound 0.316 µM
  viability, T/C: 55.8%
Second compound 0.3 µM, first compound 1 µM
  viability, T/C: 57.7%
Second compound 0.3 µM, first compound 3.16 µM
  viability, T/C: 52%
Second compound 0.3 µM, first compound 10 µM
  viability, T/C: 28.6%
[7]
  viability, T/C: 86.2%
[8]
  viability, T/C: 69.2%
Second compound 0.949 µM, first compound 0.316 µM
  viability, T/C: 66%
Second compound 0.949 µM, first compound 1 µM
  viability, T/C: 58.4%
Second compound 0.949 µM, first compound 3.16 µM
  viability, T/C: 44.2%
Second compound 0.949 µM, first compound 10 µM
  viability, T/C: 20.9%
[9]
  viability, T/C: 71.3%
[10]
  viability, T/C: 70.8%
Second compound 3 µM, first compound 0.316 µM
  viability, T/C: 50%
Second compound 3 µM, first compound 1 µM
  viability, T/C: 49.5%
Second compound 3 µM, first compound 3.16 µM
  viability, T/C: 51.4%
Second compound 3 µM, first compound 10 µM
  viability, T/C: 27.5%
